Test results reported in US7422862B2, “Methods for identifying modulators of apoptosis” (The Burnham Institute, priority 2001, dated 2008).

Columns and labels:
Mcl-1 = Mcl-1 (Homo sapiens, UniProt Q07820); experiment: Co-immunoprecipitation with Bcl-2 family proteins in HEK293T cells; assay type: binding
Source text: (§1) (A) HEK293T cells were transfected with pcDNA3-myc plasmids encoding Bax or other Bcl-2 family proteins with GFP, GFP-HN, or GFP-HN(C8P). Cell lysates were immunoprecipitated with polyclonal anti-GFP antibody. The immunoprecipitates or the lysates were blotted with anti-myc or anti-GFP antibodies, respectively. The slower migrating form of GFP seen in lane 1 (asterisk)represents an alternative form of GFP produced from the wild-type (control) p-EGFP-Cl plasmid (http://clonotech.com). (B) Testes of three-week-old mice were homogenized in lysis buffer (0.1% Triton X-100, 50 mM Tris-HCl, pH7.5, 1 mM EDTA, plus protease inhibitor cocktail). The lysates were immunoprecipitated with control rabbit serum or polyclonal anti-mouse Bax antibody. The immunoprecipitates or the lysates were subjected to electrophoresis in Tris/Tricine gels (16% T, 3% C), electroblotted to PVDF membrane, and immunoblotted with polyclonal anti-HN antibody or monoclonal anti-Bax antibody 6A7 (Trevigen). (C) The affinity (Kd) of Bax/HN interaction was measured by fluorescence polarization assay, using various concentrations of purified recombinant Bax and 40 nM rhodamine-conjugated HN peptide. Control peptide from CD40 is also shown (mean +Std Dev; n=3).
(§2) Furthermore, multiple Bcl-2 family proteins were surveyed for interactions with Humanin by coimmunoprecipitation experiments (FIG. 5A).
(§3) Immunoblotting and immunoprecipitations were performed as follows. Immunoblotting was performed as described previously (Fields and Song, Nature 340:245-246 (1989)). For co-immunoprecipitations, cells were cultured in 50 uM […] Valine Alanine Asparate fluoromethyl-ketone (zVAD-fmk) to prevent apoptosis. Cells were suspended in lysis buffer (50 mM Tris-HCl, pH7.4; 150 mM NaCl; 20 mM EDTA; 50 mM NaF; 0.5% NP-40; 0.1 mM Na3VO4; 20 ug/ml Leupeptin; 20 ug/ml Aprotinin; 1 mM DTT; and 1 mM PMSF). Lysates (200 ul diluted in 1 ml final volume of lysis buffer) were cleared by incubation with 15 ul of protein G-Sepharose 4B (Zymed) and then incubated with 15 ul of polyclonal antibody and 15 ul of protein G at 4° C. overnight. Beads were then washed 4 times with 1.5 mls lysis buffer before boiling in Laemmli sample buffer and performing SDS-PAGE/immunoblotting.

Bok = target: T1, Bok (Homo sapiens, UniProt Q9UMX3); experiment: as above; assay type: binding
T1 construct: expressed in transfected cells; host or cells: HEK293T
T1 sequence (Q9UMX3 1-212): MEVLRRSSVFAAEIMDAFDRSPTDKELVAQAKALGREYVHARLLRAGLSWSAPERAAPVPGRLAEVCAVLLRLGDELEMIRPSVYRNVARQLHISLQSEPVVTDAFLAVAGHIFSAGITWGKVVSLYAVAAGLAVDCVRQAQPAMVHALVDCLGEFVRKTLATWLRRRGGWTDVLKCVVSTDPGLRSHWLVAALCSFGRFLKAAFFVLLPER
Source text: as §1, §2, §3

HCT116 parental cells = experiment: STS-induced apoptosis in HCT116 parental cells; assay type: cell-based, human
endogenous Bax protein = experiment: Subcellular fractionation and immunoblot of endogenous Bax after STS; assay type: cell-based; conditions: Cos7 cells, untagged peptides, STS
Description: (A-B) Humanin peptide prevents STS-induced Bax translocation in vivo. Cos-7 cells were first transfected with GFP-Bax plasmids. After 24 hrs, untagged wild-type or C8P mutant Humanin peptides were introduced into cells using ChariotTM reagent, and 2 h later cells were treated with 1 μM STS. After 4 h, the percentage of cells with translocated Bax was determined (mean±SD; n=3) by confocal microscopy (A) and representative photomicrographs (B). (C) Wild-type or C8P mutant Humanin peptides were introduced into Cos7 cells using ChariotTM reagent. Cytosolic (C) and mitochondria-containing (M) fractions were isolated by differential centrifugation 23 and analyzed by immunoblotting using anti-Bax (top), Hsp60 (middle) (mitochondrial marker), or Tubulin (bottom) (cytosol marker) antibodies. (D) HN or mutant control double-strand siRNAs were transfected into SF268 cells. After 48 h, cells were cultured without (Control) or with 0.1 uM STS. After 24 hr, cells were fractionated and analyzed by immunoblotting as above. […] After 3 h at 30° C., mitochondria were centrifuged and the resulting pellets (P) and supernatants (S) were analyzed by immunoblotting using anti-Cytochrome c (top), Hsp60 (middle), and Bax (bottom) antibodies. […]
These findings were also confirmed by subcellular fractionation, where cytosol and mitochondria-enriched heavy membrane preparations were prepared from Cos7 cells transduced with untagged Humanin or Humanin(C8P) peptides, and the relative amounts of endogenous Bax protein in these two fractions were measured by immunoblot analysis of samples normalized for cell-equivalents. […] Differences in the relative potency of Humanin at blocking Bax translocation as measured by microscopy (FIG. 7A) versus cell fractionation methods (FIG. 7C) can be explained by differences in the sensitivity of the assays, or could possibly indicate that even in cells where some Bax translocation has occurred, less of the total Bax protein associated with mitochondria. […]

Bax = experiment: Bax-induced lethality in yeast; assay type: cell-based, S. cerevisiae; conditions: TAD-fusion polypeptide, galactose-induced Bax

Sequence of Mcl-1 (Q07820 whole entry, species assumed): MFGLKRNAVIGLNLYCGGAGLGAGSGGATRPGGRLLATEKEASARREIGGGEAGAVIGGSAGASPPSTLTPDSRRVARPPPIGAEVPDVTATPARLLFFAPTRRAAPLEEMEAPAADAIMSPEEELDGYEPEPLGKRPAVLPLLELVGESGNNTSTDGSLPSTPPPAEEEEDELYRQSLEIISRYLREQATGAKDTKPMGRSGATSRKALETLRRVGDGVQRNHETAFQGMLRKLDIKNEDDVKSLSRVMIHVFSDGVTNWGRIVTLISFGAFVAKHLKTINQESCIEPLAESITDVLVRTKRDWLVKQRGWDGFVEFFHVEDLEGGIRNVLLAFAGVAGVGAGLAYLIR

co-immunoprecipitation with Mcl-1 (Mcl-1)	co-immunoprecipitation with Bok (Bok)	Substance	reduction of percentage of cells undergoing STS-induced apoptosis (HCT116 parental cells)	Bax translocation by subcellular fractionation (endogenous Bax protein)	rescue of yeast from Bax-induced lethality (Bax)
did not co-immunoprecipitate	did not co-immunoprecipitate	GFP-HN: Wild-type full-length Humanin fused to Green Fluorescent Protein	about half		
		Humanin: 24 amino acid polypeptide, cytosolic form of human Humanin (SEQ ID NO:2); used as synthetic peptide or expressed fusion		reduced	rescued
